Results published in ChEMBL document CHEMBL1201861, “Genomics of Drug Sensitity in Cancer screening data, Wellcome Trust Sanger Institute”.

Legend:
Format in all cases: functional, cell-based
REH = assay: cells; details: Homo sapiens;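 also: growth inhibition of REH cells determined with a cell viability read-out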
Description: SANGER: Inhibition of human REH cell growth in a cell viability assay.

RPMI 8402 = assay: SANGER: Inhibition of human RPMI-8402 cell growth in a cell viability assay.
NCI-H2122 = assay: cells; details: Homo sapiens;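 also: growth inhibition of the cells, read out with a cell viability assay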
Description: SANGER: Inhibition of human NCI-H2122 cell growth in a cell viability assay.

EFO-21 = assay: cells; details: Homo sapiens;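 also: growth inhibition of EFO-21 cells measured with a viability assay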
Description: SANGER: Inhibition of human EFO-21 cell growth in a cell viability assay.

NCI-H2452 = assay: cells; details: Homo sapiens;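 also: growth inhibition of NCI-H2452 cells, read out with a cell viability assay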
Description: SANGER: Inhibition of human NCI-H2452 cell growth in a cell viability assay.

SCC-3 = assay: cells; details: Homo sapiens;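 also: cell viability assay measuring inhibition of SCC-3 cell growth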
Description: SANGER: Inhibition of human SCC-3 cell growth in a cell viability assay.

HCT-15 = assay: cells; details: Homo sapiens;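 also: cell viability readout, IC50 reflecting suppression of HCT-15 cell growth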
Description: SANGER: Inhibition of human HCT-15 cell growth in a cell viability assay.

KYSE-150 cell line = assay: cells; details: Homo sapiens;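 also: growth inhibition of human KYSE-150 cells, read out with a cell viability assay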
Description: SANGER: Inhibition of human KYSE-150 cell growth in a cell viability assay.

NCI-H1703 = assay: cells; details: Homo sapiens;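 also: growth inhibition of NCI-H1703 cells, read out via a cell viability assay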
Description: SANGER: Inhibition of human NCI-H1703 cell growth in a cell viability assay.

LC-1F = assay: cells; details: Homo sapiens;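 also: growth inhibition of human LC-1F cells, read out with a cell viability assay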
Description: SANGER: Inhibition of human LC-1F cell growth in a cell viability assay.

MFE-280 = assay: cells; details: Homo sapiens;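 also: growth inhibition of MFE-280 cells, determined with a cell viability readout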
Description: SANGER: Inhibition of human MFE-280 cell growth in a cell viability assay.

NCI-H1623 = assay: cells; details: Homo sapiens;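 also: cell viability assay used as the read-out for growth inhibition of NCI-H1623 cells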
Description: SANGER: Inhibition of human NCI-H1623 cell growth in a cell viability assay.

WM-115 = assay: cells; details: Homo sapiens
Description: SANGER: Inhibition of human WM-115 cell growth in a cell viability assay.

SW48 = assay: cells; details: Homo sapiens;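 also: growth inhibition of SW48 cells, read out with a cell viability assay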
Description: SANGER: Inhibition of human SW48 cell growth in a cell viability assay.

SNU-16 = assay: cells; details: Homo sapiens;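 also: growth inhibition of human SNU-16 cells, determined with a cell viability readout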
Description: SANGER: Inhibition of human NCI-SNU-16 cell growth in a cell viability assay.

KYSE-510 = assay: cells; details: Homo sapiens;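 also: cell viability readout used to measure how strongly growth of the cell line is suppressed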
Description: SANGER: Inhibition of human KYSE-510 cell growth in a cell viability assay.

SW837 = assay: cells; details: Homo sapiens;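 also: growth inhibition of SW837 cells, determined with a cell viability assay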
Description: SANGER: Inhibition of human SW837 cell growth in a cell viability assay.

BT-20 = assay: cells; details: Homo sapiens;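 also: cell viability assay measuring suppression of growth in human BT-20 cells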
Description: SANGER: Inhibition of human BT-20 cell growth in a cell viability assay.

CAL-120 = assay: cells; details: Homo sapiens;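 also: cell growth inhibition, read out as cell viability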
Description: SANGER: Inhibition of human CAL-120 cell growth in a cell viability assay.

NCI-H292 = assay: cells; details: Homo sapiens;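 also: growth inhibition of NCI-H292 cells, read out with a cell viability assay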
Description: SANGER: Inhibition of human NCI-H292 cell growth in a cell viability assay.

NCI-H2052 = assay: cells; details: Homo sapiens;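 also: growth inhibition of NCI-H2052 cells, read out with a cell viability assay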
Description: SANGER: Inhibition of human NCI-H2052 cell growth in a cell viability assay.

OAW-28 = assay: cells; details: Homo sapiens;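 also: growth inhibition of OAW-28 cells, read out with a cell viability assay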
Description: SANGER: Inhibition of human OAW-28 cell growth in a cell viability assay.

SW756 = assay: cells; details: Homo sapiens;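 also: growth inhibition of human SW756 cells, read out with a cell viability assay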
Description: SANGER: Inhibition of human SW756 cell growth in a cell viability assay.

CAPAN-1 = assay: cells; details: Homo sapiens;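 also: growth suppression of CAPAN-1 cells, read out by a cell viability assay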
Description: SANGER: Inhibition of human CAPAN-1 cell growth in a cell viability assay.

BHT-101 = assay: cells; details: Homo sapiens
Description: SANGER: Inhibition of human BHT-101 cell growth in a cell viability assay.

HMV-2 cell line = assay: cells; details: Homo sapiens;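 also: growth inhibition of HMV-II cells, read out with a cell viability assay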
Description: SANGER: Inhibition of human HMV-II cell growth in a cell viability assay.

SCC-9 = assay: cells; details: Homo sapiens;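 also: Read-out is a cell viability assay, with values giving inhibition of cell growth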
Description: SANGER: Inhibition of human SCC-9 cell growth in a cell viability assay.

SW13 = assay: cells; details: Homo sapiens;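 also: IC50 is inhibition of SW13 cell growth, read out with a cell viability assay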
Description: SANGER: Inhibition of human SW13 cell growth in a cell viability assay.

NCI-H2170 = assay: cells; details: Homo sapiens;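 also: cell viability assay measuring growth inhibition of human NCI-H2170 cancer cells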
Description: SANGER: Inhibition of human NCI-H2170 cell growth in a cell viability assay.

A673 = assay: cells; details: Homo sapiens;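 also: growth inhibition of human A673 cells, read out through a cell viability assay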
Description: SANGER: Inhibition of human A673 cell growth in a cell viability assay.

SNU-449 = assay: cells; details: Homo sapiens
Description: SANGER: Inhibition of human SNU-449 cell growth in a cell viability assay.

HuO-3N1 = assay: cells; details: Homo sapiens;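 also: cell viability readout used to measure how strongly compounds suppress proliferation of human HuO-3N1 cells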
Description: SANGER: Inhibition of human HuO-3N1 cell growth in a cell viability assay.

MDA-MB-453 = assay: cells; details: Homo sapiens
Description: SANGER: Inhibition of human MDA-MB-453 cell growth in a cell viability assay.

CAL-39 = assay: cells; details: Homo sapiens;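 also: cell viability assay measuring growth inhibition of CAL-39 cells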
Description: SANGER: Inhibition of human CAL-39 cell growth in a cell viability assay.

MG-63 = assay: cells; details: Homo sapiens;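 also: growth inhibition of human MG-63 cells, read out with a cell viability assay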
Description: SANGER: Inhibition of human MG-63 cell growth in a cell viability assay.

TE-15 = assay: cells; details: Homo sapiens;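 also: cell viability readout of growth inhibition in TE-15 cells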
Description: SANGER: Inhibition of human TE-15 cell growth in a cell viability assay.

NUGC-3 = assay: cells; details: Homo sapiens;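 also: growth inhibition of human NUGC-3 cells, read out with a cell viability assay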
Description: SANGER: Inhibition of human NUGC-3 cell growth in a cell viability assay.

T98G = assay: cells; details: Homo sapiens;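 also: growth inhibition of T98G cells, read out by a cell viability assay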
Description: SANGER: Inhibition of human T98G cell growth in a cell viability assay.

HCC70 = assay: cells; details: Homo sapiens;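 also: cell viability assay measuring how strongly the compound suppresses proliferation of HCC70 cells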
Description: SANGER: Inhibition of human HCC70 cell growth in a cell viability assay.

A253 cell line = assay: cells; details: Homo sapiens;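 also: growth inhibition of A253 cells, read out with a cell viability assay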
Description: SANGER: Inhibition of human A253 cell growth in a cell viability assay.

RCM-1 = assay: cells; details: Homo sapiens;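 also: growth inhibition of the RCM-1 line, determined with a cell viability readout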
Description: SANGER: Inhibition of human RCM-1 cell growth in a cell viability assay.

SKG-IIIa = assay: cells; details: Homo sapiens;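 also: cell growth inhibition, read out with a cell viability assay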
Description: SANGER: Inhibition of human SKG-IIIa cell growth in a cell viability assay.

DoTc2-4510 = assay: cells; details: Homo sapiens
NCCIT = assay: SANGER: Inhibition of human NCCIT cell growth in a cell viability assay.
U-118-MG = assay: cells; details: Homo sapiens
Description: SANGER: Inhibition of human U-118-MG cell growth in a cell viability assay.

LOUCY = assay: cells; details: Homo sapiens;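 also: growth inhibition of human LOUCY cells, read out with a cell viability assay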
Description: SANGER: Inhibition of human LOUCY cell growth in a cell viability assay.

SF-295 = assay: cells; details: Homo sapiens;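 also: growth inhibition of SF-295 cells, read out with a cell viability assay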
Description: SANGER: Inhibition of human SF295 cell growth in a cell viability assay.

KYSE-270 = assay: cells; details: Homo sapiens;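 also: cell growth inhibition measured with a viability assay in the human KYSE-270 line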
Description: SANGER: Inhibition of human KYSE-270 cell growth in a cell viability assay.

DG-75 = assay: cells; details: Homo sapiens;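 also: growth inhibition of DG-75 cells, read out with a cell viability assay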
Description: SANGER: Inhibition of human DG-75 cell growth in a cell viability assay.

Raji = assay: cells; details: Homo sapiens;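 also: cell viability assay measuring inhibition of Raji cell growth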
Description: SANGER: Inhibition of human Raji cell growth in a cell viability assay.

HSC-4 = assay: cells; details: Homo sapiens;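 also: growth inhibition of human HSC-4 cells, read out with a cell viability assay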
Description: SANGER: Inhibition of human HSC-4 cell growth in a cell viability assay.

U-698-M = assay: cells; details: Homo sapiens
Description: SANGER: Inhibition of human U-698-M cell growth in a cell viability assay.

BXPC-3 = assay: cells; details: Homo sapiens;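 also: growth inhibition of human BxPC-3 cells, read out by a cell viability assay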
Description: SANGER: Inhibition of human BxPC-3 cell growth in a cell viability assay.

CAL-72 = assay: cells; details: Homo sapiens;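 also: cell viability assay measuring inhibition of proliferation in the CAL-72 cell line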
Description: SANGER: Inhibition of human CAL-72 cell growth in a cell viability assay.

PFSK-1 = assay: cells; details: Homo sapiens;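 also: cell viability assay measuring how strongly compounds suppress growth of human PFSK-1 cells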
Description: SANGER: Inhibition of human PFSK-1 cell growth in a cell viability assay.

MHH-CALL-2 = assay: cells; details: Homo sapiens;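 also: growth inhibition of the cell line, read out in a cell viability assay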
Description: SANGER: Inhibition of human MHH-CALL-2 cell growth in a cell viability assay.

HLE = assay: cells; details: Homo sapiens;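 also: growth inhibition of human HLE cells, read out by a cell viability assay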
Description: SANGER: Inhibition of human HLE cell growth in a cell viability assay.

G-361 = assay: cells; details: Homo sapiens
NCI-H1693 = assay: cells; details: Homo sapiens;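 also: growth inhibition of the human cell line, read out with a cell viability assay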
Description: SANGER: Inhibition of human NCI-H1693 cell growth in a cell viability assay.

NCI-H1651 = assay: cells; details: Homo sapiens
Description: SANGER: Inhibition of human NCI-H1651 cell growth in a cell viability assay.

EFO-27 = assay: cells; details: Homo sapiens
Description: SANGER: Inhibition of human EFO-27 cell growth in a cell viability assay.

TUR = assay: cells; details: Homo sapiens
Description: SANGER: Inhibition of human TUR cell growth in a cell viability assay.

Measured: IC50

CC(O)(CS(=O)(=O)c1ccc(F)cc1)C(=O)Nc1ccc(C#N)c(C(F)(F)F)c1 (configuration not stated) [BICALUTAMIDE]
> 1020 nM: REH | RPMI 8402 | NCI-H2122 | EFO-21 | NCI-H2452 | SCC-3 | HCT-15 | KYSE-150 cell line | NCI-H1703 | LC-1F | MFE-280 | NCI-H1623 | WM-115 | SW48 | SNU-16 | KYSE-510 | SW837 | BT-20 | CAL-120 | NCI-H292 | NCI-H2052 | OAW-28 | SW756 | CAPAN-1 | BHT-101 | HMV-2 cell line | SCC-9 | SW13 | NCI-H2170 | A673 | SNU-449 | HuO-3N1 | MDA-MB-453 | CAL-39 | MG-63 | TE-15 | NUGC-3 | T98G | HCC70 | A253 cell line | RCM-1 | SKG-IIIa | DoTc2-4510 | NCCIT | U-118-MG | LOUCY | SF-295 | KYSE-270 | DG-75 | Raji | HSC-4 | U-698-M | BXPC-3 | CAL-72 | PFSK-1 | MHH-CALL-2 | HLE | G-361 | NCI-H1693 | NCI-H1651 | EFO-27 | TUR
